Measurements from EP4591884A1, “LIPID COMPOUND FOR NUCLEIC ACID DELIVERY, AND RELATED USE AND MEDICAMENT COMPRISING SAME” (Beijing Baishihekang Pharmaceutical Technology (Bsjpharma) …, priority 2022, dated 2024).

Key:
Experiment in all cases: in vitro small nucleic acid delivery by lipid-nucleic acid mixture, cell uptake by flow cytometry
Type in all cases: cell-based, human
Settings in all cases: lipid 1.25 ug/mL, fluorescently labeled PGY-ssRNA-26, final 100 nM, 9 h incubation, flow cytometry fluorescence
HPAC cells = test system: HPAC cells
Method: (§1) Culture the human pancreatic acinar epithelial cancer cell line HPAC, human large cell lung cancer cell line H460, and human embryonic kidney cell line HEK293T (purchased from the Cell Resource Center, Institute of Basic Medicine, Chinese Academy of Medical Sciences) used in the experiments in a 37°C, 5%CO2 incubator. Culture the HPAC cells in DMEM/F12 medium, the H460 cells in RPMI-1640 medium, and the 293T cells in DMEM medium containing 10% fetal bovine serum and 1% antibiotics (penicillin 100 U/mL & streptomycin […]). Culture the cells to the logarithmic growth phase with a cell density of 6 × 10^5/1 mL medium/well; divide the cells into 12-well plates (1 mL medium/well), and incubate at 37°C overnight (12 h), and then conduct subsequent experiments.
(§2) Add 5 µL of nucleic acid and 95 µL of DEPC-treated water to a 2 mL glass tube, mix homogeneously, add a certain amount of lipid monomer, mix thoroughly, heat in a 90°C water bath for 15 min, and then cool naturally to obtain a mixture of nucleic acid and lipid.
(§3) 3. Detection of cell uptake of nucleic acids delivered by lipids inside cells by means of flow cytometry (CFlow) • 1) Main experimental instruments and equipment: 10 cm cell culture dishes, 12-well cell culture plates, pipettes, transfer tubes, optical microscope, flow cytometer CytoFLEX instrument (purchased from Beckman, USA) • 2) Main experimental reagents: Model establishment and transfection: artificially synthesized lipid monomers and nucleic acids as shown in the table • 3) Culture the human pancreatic acinar epithelial cancer cell line HPAC cells, human large cell lung cancer cell line H460 cells, and human embryonic kidney cell line HEK293T cells used in the experiment to the logarithmic growth phase, and then divide them into 12-well plates at a cell density of 6×10^5/mL culture medium/well; incubate the 12-well plates at 37°C overnight (12 h), and then conduct subsequent experiments. • 4) The experimental groups are as follows: • a) Blank group: refers to untreated cells, and this group serves as a blank control group. • b) Free uptake group: directly add 5 µL of fluorescently labeled nucleic acid solution (stock concentration 20 µM), and this group serves as the negative control group. • c) Lipid-nucleic acid mixture treatment group: add the mixture of lipids and fluorescently labeled nucleic acids prepared in step 2 to the cells, and mix homogeneously. The final concentration of nucleic acids is 100 nM. • 5) After incubating with cells for 9 h, wash the cells three times with PBS, resuspend the cells with PBS (self-prepared), and use a flow cytometer CytoFLEX instrument (purchased from Beckman, USA) to detect the fluorescence intensity of the cells in the sample wells.

H460 cells = test system: H460 cells
Method: as §1, §2, §3

293T cells = test system: 293T cells
Method: as §1, §2, §3

| Structure (SMILES) | Lipid delivery group (1.25 ug/mL) (HPAC cells) [%] | Lipid delivery group (1.25 ug/mL) (H460 cells) [%] | Lipid delivery group (1.25 ug/mL) (293T cells) [%] |
| --- | --- | --- | --- |
| CCCCCCCCCCCCCCCCCCCCCCCCCCC[C@@H](O)[C@@H](N)CO [Sphingosine (d30:0), (2S,3R)-2-aminotriacontane-1,3-diol] | 93.63 | 78.84 | 83.38 |
| CCCCCCCCCCCCCCCCCCCCCCCCCCCCC/C=C/[C@@H](O)[C@@H](N)CO [Sphingosine (d34:1), (2S,3R,E)-2-aminotetratriacont-4-ene-1,3-diol] | 2.95 | 66.64 | 38.31 |
| CCCCCCCCCCCCCCCCCCCCCCC[C@@H](O)[C@@H](N)CO [Sphingosine (d26:0), (2S,3R)-2-aminohexacosane-1,3-diol] | 97.75 | 95.2 | 95.55 |
| CCCCCCCCCCCCCCCCCCCCCCCCCCCCCCC/C=C/[C@@H](O)[C@@H](N)CO [Sphingosine (d36:1), (2S,3R,E)-2-aminohexatriacont-4-ene-1,3-diol] | 48.77 | 48.37 | 25.23 |
| CCCCCCCCCCCCCCCCCCCC[C@@H](O)[C@@H](N)CO [Sphingosine (d23:0), (2S,3R)-2-aminotricosane-1,3-diol] | 78.91 | 98.65 | 98.16 |
| CCCCCCCCCCCCCCCCCCCCCCCCC[C@@H](O)[C@@H](N)CO [Sphingosine (d28:0), (2S,3R)-2-aminooctacosane-1,3-diol] | 94.40 | 98.52 | 96.93 |
| CCCCCCCCCCCCCCCCCCCCCCCC[C@@H](O)[C@@H](N)CO [Sphingosine (d27:0), (2S,3R)-2-aminoheptacosane-1,3-diol] | 97.35 | 97.57 | 91.06 |
| CCCCCCCCCCCCCCCCCCCCCCCCCCCCCCCC[C@@H](O)[C@@H](N)CO [Sphingosine (d35:0), (2S,3R)-2-aminopentatriacontane-1,3-diol] | 51.46 | 69.95 | 43.03 |
| CCCCCCCCCCCCCCCCCCCCCCCCCCCCC[C@@H](O)[C@@H](N)CO [Sphingosine (d32:0), (2S,3R)-2-aminodotriacontane-1,3-diol] | 70.16 | 46.19 | 34.02 |
| CCCCCCCCCCCCCCCCCCCCCCCCC/C=C/[C@@H](O)[C@@H](N)CO [Sphingosine (d30:1), (2S,3R,E)-2-aminotriacont-4-ene-1,3-diol] | 69.34 | 54.83 | 95.79 |
| CCCCCCCCCCCCCCCCCC/C=C/[C@@H](O)[C@@H](N)CO [Sphingosine (d23:1), (2S,3R,E)-2-aminotricos-4-ene-1,3-diol] | 7.93 | 44.11 | 34.51 |
| CCCCCCCCCCCCCCCCCCCCCCCCCC[C@@H](O)[C@@H](N)CO [Sphingosine (d29:0), (2S,3R)-2-aminononacosane-1,3-diol] | 83.57 | 65.81 | 72.18 |
| CCCCCCCCCCCCCCCCCCCCCCCCCCC/C=C/[C@@H](O)[C@@H](N)CO [Sphingosine (d32:1), (2S,3R,E)-2-aminodotriacont-4-ene-1,3-diol] | 87.38 | 62.18 | 86.77 |
| CCCCCCCCCCCCCCCCCCCCCCCCCC/C=C/[C@@H](O)[C@@H](N)CO [Sphingosine (d31:1), (2S,3R,E)-2-aminohentriacont-4-ene-1,3-diol] | 60.61 | 82.66 | 75.77 |
| CCCCCCCCCCCCCCCCCCCCCC/C=C/[C@@H](O)[C@@H](N)CO [Sphingosine (d27:1), (2S,3R,E)-2-aminoheptacos-4-ene-1,3-diol] | 99.42 | 95.74 | 92.77 |
| CCCCCCCCCCCCCCCCCCC/C=C/[C@@H](O)[C@@H](N)CO [Sphingosine (d24:1), (2S,3R,E)-2-aminotetracos-4-ene-1,3-diol] | 16.65 | 79.66 | 63.97 |
| CCCCCCCCCCCCCCCCCCCC/C=C/[C@@H](O)[C@@H](N)CO [Sphingosine (d25:1), (2S,3R,E)-2-aminopentacos-4-ene-1,3-diol] | 89.70 | 78.43 | 78.12 |
| CCCCCCCCCCCCCCCCCCCCCCCCCCCCCCCCC[C@@H](O)[C@@H](N)CO [Sphingosine (d36:0), (2S,3R)-2-aminohexatriacontane-1,3-diol] | 58.22 | 62.71 | 40.66 |
| CCCCCCCCCCCCCCCCCCC[C@@H](O)[C@@H](N)CO [Sphingosine (d22:0), (2S,3R)-2-aminodocosane-1,3-diol] | 39.08 | 24.32 | 22.99 |
| CCCCCCCCCCCCCCCCCCCCC/C=C/[C@@H](O)[C@@H](N)CO [Sphingosine (d26:1), (2S,3R,E)-2-aminohexacos-4-ene-1,3-diol] | 96.03 | 85.87 | 87.97 |
| CCCCCCCCCCCCCCCCCCCCCCCCCCCCCCC[C@@H](O)[C@@H](N)CO [Sphingosine (d34:0), (2S,3R)-2-aminotetratriacontane-1,3-diol] | 0.55 | 24.56 | 5 |
| CCCCCCCCCCCCCCCCCCCCCC[C@@H](O)[C@@H](N)CO [Sphingosine (d25:0), (2S,3R)-2-aminopentacosane-1,3-diol] | 96.17 | 99.26 | 97.76 |
| CCCCCCCCCCCCCCCCCCCCCCCCCCCCCC[C@@H](O)[C@@H](N)CO [Sphingosine (d33:0), (2S,3R)-2-aminotritriacontane-1,3-diol] | 2.48 | 72.21 | 61.39 |
| CCCCCCCCCCCCCCCCCCCCC[C@@H](O)[C@@H](N)CO [Sphingosine (d24:0), (2S,3R)-2-aminotetracosane-1,3-diol] | 96.61 | 98.13 | 96.77 |
| CCCCCCCCCCCCCCCCCCCCCCCCCCCC/C=C/[C@@H](O)[C@@H](N)CO [Sphingosine (d33:1), (2S,3R,E)-2-aminotritriacont-4-ene-1,3-diol] | 45.88 | 67.01 | 40.07 |
